Measured values taken from patent US20110087037A1, “SYNTHESIS OF RING B ABEO-STEROLS AS NOVEL INHIBITORS OF MYCOBACTERIUM TUBERCULOSIS” (priority 2007, published 2011).
≈ marks a conversion by molar mass, not a printed value. Entries after “also recorded” stand apart in the source; their conditions may differ. Like-named read-outs stand apart in the source and are kept apart here.

Key:
Mtb H37Rv (ATCC 27294) = experiment: Microplate Alamar Blue Assay (MABA), in vitro M. tuberculosis growth inhibition; assay type: cell-based, Mycobacterium tuberculosis; conditions: for meaningful activity against Mtb: at 64 μg/mL
VERO cells (ATCC CCL-81) = experiment: Cytotoxicity against VERO cells; assay type: cell-based
[1] = patients on TB therapy; cited from earlier work
[2] = 16 μg/mL, Mtb H37Rv, MABA, mean of three experiments
[3] = 32 μg/mL, Mtb H37Rv, MABA, mean of three experiments
[4] = 64 μg/mL, Mtb H37Rv, MABA, mean of three experiments
[5] = 128 μg/mL, Mtb H37Rv, MABA, mean of three experiments
[6] = lowest drug concentration that effected an inhibition of ≧90% relative to untreated cultures, Mtb H37Rv
[7] = 2 μg/mL, Mtb H37Rv, MABA, mean of three experiments
[8] = 4 μg/mL, Mtb H37Rv, MABA, mean of three experiments
[9] = 8 μg/mL, Mtb H37Rv, MABA, mean of three experiments

Compound | % Inhibition (Mtb H37Rv (ATCC 27294); [2]) [%] | % Inhibition (Mtb H37Rv (ATCC 27294); [3]) [%] | % Inhibition (Mtb H37Rv (ATCC 27294); [4]) [%] | % Inhibition (Mtb H37Rv (ATCC 27294); [5]) [%] | meaningful activity against Mtb (Mtb H37Rv (ATCC 27294)) | MIC (Mtb H37Rv (ATCC 27294); [6]) [µg/mL] | Cyto-toxicity IC50 (VERO cells (ATCC CCL-81)) | % Inhibition (Mtb H37Rv (ATCC 27294); [7]) [%] | % Inhibition (Mtb H37Rv (ATCC 27294); [8]) [%] | % Inhibition (Mtb H37Rv (ATCC 27294); [9]) [%] | Adverse reactions, Infrequent (≧1 per 1,000 patients and <1 per 100 patients) [1] | also measured
C=C(CC[C@@H](C)[C@H]1CC[C@H]2[C@@H]3CC=C4C[C@@H](O)CC[C@]4(C)[C@H]3CC[C@]12C)C(C)C [Compound 1] | 33 | 43 | 40 | 97 | none | 120.1 (≈ 301 µM) | >128 (n.d.) μg/mL | – | – | – | – | activity against M. tuberculosis H37Rv (Mtb H37Rv (ATCC 27294)): only marginal activity
C=C(CC[C@@H](C)[C@H]1CC[C@H]2[C@@H]3C(C=O)=C4C[C@@H](O)CC[C@]4(C)[C@H]3CC[C@]12C)C(C)C [Compound 2] | 105 | 99 | 99 | 99 | – | 7.8 (≈ 18.9 µM) | 51 µg/mL | 52 | 69 | 91 | – | –
CC(C)C(=O)CC[C@@H](C)[C@H]1CC[C@H]2[C@@H]3C(C=O)=C4C[C@@H](O)CC[C@]4(C)[C@H]3CC[C@]12C [Compound 3] | 92 | 96 | 100 | 99 | – | 13.6 (≈ 32.8 µM) | 43.8 µg/mL | 52 | 67 | 83 | – | –
CCC(CCC(C)C1CCC2C3CC=C4CC(O)CCC4(C)C3CCC12C)C(C)C (centres unmarked) [Compound 4] | 32 | 31 | 48 | 45 | none | >128 | >128 (n.d.) μg/mL | −1 | 8 | 7 | – | –
CCC(CCC(C)C1CCC2C3C(C=O)=C4CC(O)CCC4(C)C3CCC12C)C(C)C (centres unmarked) [Compound 5] | 98 | 99 | 99 | 99 | – | 3.8 (≈ 8.86 µM) | 26.6 µg/mL | 29 | 97 | 99 | – | –
CC(C)CCC[C@@H](C)[C@H]1CC[C@H]2[C@@H]3CC=C4C[C@@H](O)CC[C@]4(C)[C@H]3CC[C@]12C [Compound 6, cholesterol] | – | – | – | – | none | – | – | – | – | – | – | inhibition at 16 µg/mL (Mtb H37Rv (ATCC 27294); Mycobacterium tuberculosis, 16 μg/mL, Mtb H37Rv, MABA, mean of three experiments): 33%; inhibition at 32 µg/mL (Mtb H37Rv (ATCC 27294); Mycobacterium tuberculosis, 32 μg/mL, Mtb H37Rv, MABA, mean of three experiments): 13%; inhibition at 64 µg/mL (Mtb H37Rv (ATCC 27294); Mycobacterium tuberculosis, 64 μg/mL, Mtb H37Rv, MABA, mean of three experiments): 24%; inhibition at 128 µg/mL (Mtb H37Rv (ATCC 27294); Mycobacterium tuberculosis, 128 μg/mL, Mtb H37Rv, MABA, mean of three experiments): 57%; MIC (Mtb H37Rv (ATCC 27294); Mycobacterium tuberculosis, read-out: MIC): > 128 µg/mL
CC(C)CCC[C@@H](C)[C@H]1CC[C@H]2[C@@H]3C(C=O)=C4C[C@@H](O)CC[C@]4(C)[C@H]3CC[C@]12C [Compound 7] | 96 | 99 | 99 | 99 | – | 15 (≈ 37.4 µM) | > 128 µg/mL | 10 | 34 | 51 | – | –
CC(C)C(C)C1(C)CC1C(C)C1CCC2C3CC=C4CC(O)CCC4(C)C3CCC12C (centres unmarked) [Compound 8] | 10 | 13 | 18 | 38 | none | >128 | >128 (n.d.) μg/mL | – | – | – | – | –
CC(C)C(C)C1(C)CC1C(C)C1CCC2C3C(C=O)=C4CC(O)CCC4(C)C3CCC12C (centres unmarked) [Compound 9] | 96 | 98 | 99 | 99 | – | 12.7 (≈ 28.8 µM) | – | 17 | 33 | 81 | – | –
CC(C)[C@@H](C)CC[C@@H](C)[C@H]1CC[C@H]2[C@@H]3CC=C4C[C@@H](O)CC[C@]4(C)[C@H]3CC[C@]12C [Compound 10] | 21 | 31 | 41 | 58 | none | >128 | >128 (n.d.) μg/mL | 15 | 14 | 23 | – | –
CC(C)[C@@H](C)CC[C@@H](C)[C@H]1CC[C@H]2[C@@H]3C(C=O)=C4C[C@@H](O)CC[C@]4(C)[C@H]3CC[C@]12C [Compound 11] | 99 | 99 | 100 | 99 | – | 3.9 (≈ 9.4 µM) | – | 39 | 94 | 97 | – | –
CC[C@@H](CO)NCCN[C@@H](CC)CO [Ethambutol] | – | – | – | – | – | – | – | – | – | – | Retrobulbar neuritis; also recorded: Periaxial ocular toxicity | –
NNC(=O)c1ccncc1 [Isoniazid] | – | – | – | – | – | – | – | – | – | – | Hepatitis; also recorded: Peripheral neuropathy; also recorded: Drug fever | Adverse reactions, Frequent (≧5 per 100 patients) [1]: Liver enzyme
NC(=O)c1cnccn1 [Pyrazinamide] | – | – | – | – | – | – | – | – | – | – | Hepatitis and Rash and Nausea | Adverse reactions, Common (≧1-5 per 100 patients) [1]: Nausea; Adverse reactions, Frequent (≧5 per 100 patients) [1]: Arthralgias
CO[C@H]1/C=C/O[C@@]2(C)Oc3c(C)c(O)c4c(O)c(c(/C=N/N5CCN(C)CC5)c(O)c4c3C2=O)NC(=O)/C(C)=C\C=C\[C@H](C)[C@H](O)[C@@H](C)[C@@H](O)[C@@H](C)[C@H](OC(C)=O)[C@@H]1C [RMP, Rifampin] | – | – | – | – | – | – | – | – | – | – | Hepatitis; also recorded: Pruritus; also recorded: Flu syndrome; also recorded: Drug fever | Adverse reactions, Frequent (≧5 per 100 patients) [1]: Liver enzyme elevations; also recorded: Orange discoloration
[H]/N=C(/N)N[C@H]1[C@H](O)[C@@H](O)[C@H](O[C@@H]2O[C@@H](C)[C@](O)(C=O)[C@H]2O[C@@H]2O[C@@H](CO)[C@H](O)[C@@H](O)[C@@H]2NC)[C@@H](N/C(N)=N\[H])[C@@H]1O [Streptomycin] | – | – | – | – | – | – | – | – | – | – | Renal damage | Adverse reactions, Common (≧1-5 per 100 patients) [1]: Cochlear toxicity; also recorded: Hypersensitivity; Adverse reactions, Frequent (≧5 per 100 patients) [1]: Vestibular toxicity
